Experimental data from patent EP2396329B1, “COMPOUNDS FOR THE TREATMENT OF HEPATITIS C” (priority 2009, dated 2010).
Read-outs that look alike come from different tables or passages of the source.

Columns and labels:
HCV NS5B = biological target: T1, HCV NS5B (Hepatitis C virus genotype 1b, UniProt Q9WMX2); test: HCV NS5B RdRp enzyme assay (standard or modified); format: biochemical
T1 construct: The protein was expressed with an 18 amino acid C-terminal truncation to enhance the solubility; made in house; host or cells: E. coli BL21(DE3)
Experimental: HCV NS5B RdRp cloning, expression, and purification. The cDNA encoding the NS5B protein of HCV, genotype 1b, was cloned into the pET21a expression vector. The protein was expressed with an 18 amino acid C-terminal truncation to enhance the solubility. The E. coli competent cell line BL21(DE3) was used for expression of the protein. Cultures were grown at 37 °C for ~ 4 hours until the cultures reached an optical density of 2.0 at 600 nm. The cultures were cooled to 20 °C and induced with I mM IPTG. Fresh ampicillin was added to a final concentration of 50 µg/ml and the cells were grown overnight at 20 °C.
Cell pellets (3L) were lysed for purification to yield 15-24 mgs of purified NS5B. The lysis buffer consisted of 20 mM Tris-HCl, pH 7.4, 500 mM NaCl, 0.5% triton X-100, 1 mM DTT, 1mM EDTA, 20% glycerol, 0.5 mg/ml lysozyme, 10 mM MgCl2, 15 ug/ml deoxyribonuclease I, and Complete TM protease inhibitor tablets (Roche). After addition of the lysis buffer, frozen cell pellets were resuspended using a tissue homogenizer. To reduce the viscosity of the sample, aliquots of the lysate were sonicated on ice using a microtip attached to a Branson sonicator. The sonicated lysate was centrifuged at 100,000 x g for 1hr at 4 °C and filtered through a 0.2 µm filter unit (Corning).
The protein was purified using three sequential chromatography steps: Heparin sepharose CL-6B, polyU sepharose 4B, and Hitrap SP sepharose (Pharmacia). The chromatography buffers were identical to the lysis buffer but contained no lysozyme, deoxyribonuclease I, MgCl2 or protease inhibitor and the NaCl concentration of the buffer was adjusted according to the requirements for charging the protein onto the column. Each column was eluted with a NaCl gradient which varied in length from 5-50 column volumes depending on the column type. After the final chromatography step, the resulting purity of the enzyme is >90% based on SDS-PAGE analysis. The enzyme was aliquoted and stored at -80 °C.
Standard HCV NS5B RdRp enzyme assay. HCV RdRp genotype 1b assays were run in a final volume of 60 µl in 96 well plates (Costar 3912). The assay buffer is composed of 20 mM Hepes, pH 7.5, 2.5 mM KCI, 2.5 mM MgCl2, 1 mM DTT, 1.6 U RNAse inhibitor (Promega N2515), 0.1 mg/ml BSA (Promega R3961), and 2 % glycerol. All compounds were serially diluted (3-fold) in DMSO and diluted further in water such that the final concentration of DMSO in the assay was 2%. HCV RdRp genotype Ib enzyme was used at a final concentration of 28 nM. A polyA template was used at.6 nM, and a biotinylated oligo-dT12 primer was used at 180 nM final concentration. Template was obtained commercially (Amersham 27-4110). Biotinylated primer was prepared by Sigma Genosys. 3H-UTP was used at 0.6 µCi (0.29 µM total UTP). Reactions were initiated by the addition of enzyme, incubated at 30 °C for 60 min, and stopped by adding 25 µl of 50 mM EDTA containing SPA beads (4 µg/µl, Amersham RPNQ 0007). Plates were read on a Packard Top Count NXT after > 1hr incubation at room temperature.
Modified HCV NS5B RdRp enzyme assay. A modified enzyme assay was performed essentially as described for the standard enzyme assay except for the following: The biotinylated oligo dT12 primer was precaptured on streptavidin-coated SPA beads by mixing primer and beads in assay buffer and incubating at room temperature for one hour. Unbound primer was removed after centrifugation. The primer-bound beads were resuspended in 20 mM Hepes buffer, pH 7.5 and used in the assay at final concentrations of 20 nM primer and 0.67 µg/µl beads. Order of addition in the assay: enzyme (14 nM) was added to diluted compound followed by the addition of a mixture of template (0.2 nM), 3H-UTP (0.6 µCi, 0.29 µM), and primer-bound beads, to initiate the reaction; concentrations given are final. Reactions were allowed to proceed for 4 hours at 30° C.
IC50 values for compounds were determined using seven different [I]. […]

HCV replicon = HCV replicon assay (FRET or luciferase readout); format: cell-based; settings: Hepatitis C virus
Text: FRET Assay Preparation. To perform the HCV FRET screening assay, 96-well cell culture plates were used. The FRET peptide (Anaspec, Inc.) (Taliani et al., Anal. Biochem. 1996, 240, 60-67) contains a fluorescence donor, EDANS, near one end of the peptide and an acceptor, DABCYL, near the other end. The fluorescence of the peptide is quenched by […] resonance energy transfer (RET) between the donor and the acceptor, but as the NS3 protease cleaves the peptide the products are released from RET quenching and the fluorescence of the donor becomes apparent. The assay reagent was made as follows: 5X cell Luciferase cell culture lysis reagent from Promega (#E153A) diluted to 1X with dH2O, NaCl added to 150 mM final, the FRET peptide diluted to 20 µM final from a 2 mM stock.
To prepare plates, HCV replicon cells, with or without a Renilla luciferase reporter gene, were trypsinized and placed into each well of a 96-well plate with titrated test compounds added in columns 3 through 12; columns 1 and 2 contained a control compound (HCV protease inhibitor), and the bottom row contained cells without compound. The plates were then placed in a CO2 incubator at 37 °C.
Assays. Subsequent to addition of the test compounds described above (FRET Assay Preparation), at various times the plate was removed and Alamar blue solution (Trek Diagnostics, #00-100) was added per well as a measure of cellular toxicity. After reading in a Cytoflour 4000 instrument (PE Biosystems), plates were rinsed with PBS and then used for FRET assay by the addition of 30 ul of the FRET peptide assay reagent described above (FRET Assay Preparation) per well. The plate was then placed into the Cytoflour 4000 instrument which had been set to 340 excite/490 emission, automatic mode for 20 cycles and the plate read in a kinetic mode. Typically, the signal to noise using an endpoint analysis after the reads was at least three-fold. Alternatively, after Alamar blue reading, plates were rinsed with PBS, 50 ul of DMEM (high glucose) without phenol red was added and plates were then used for luciferase assay using the Promega Dual-Glo Luciferase Assay System.
Compound analysis was determined by quantification of the relative HCV replicon inhibition and the relative cytotoxicity values. To calculate cytoxicity values, the average Alamar Blue fluorescence signals from the control wells were set as 100% non-toxic. The individual signals in each of the compound test wells were then divided by the average control signal and multiplied by 100% to determine […]. To calculate the HCV replicon inhibition values, an average background value was obtained from the two wells containing the highest amount of HCV protease inhibitor at the end of the assay period. These numbers were similar to those obtained from naïve Huh-7 cells.
The background numbers were then subtracted from the average signal obtained from the control wells and this number was used as 100% activity. The individual signals in each of the compound test wells were then divided by the averaged control values after background subtraction and multiplied by 100% to determine percent activity. EC50 values for a protease inhibitor titration were calculated as the concentration which caused a 50% reduction in FRET or luciferase activity. The two numbers generated for the compound plate, percent cytoxicity and percent activity were used to determine compounds of interest for further analysis.

[1] = HCV NS5B RdRp enzyme, genotype 1b, read-out: IC50
[2] = HCV replicon cells, FRET or luciferase activity, read-out: EC50

T1 sequence (Q9WMX2 2420-2992): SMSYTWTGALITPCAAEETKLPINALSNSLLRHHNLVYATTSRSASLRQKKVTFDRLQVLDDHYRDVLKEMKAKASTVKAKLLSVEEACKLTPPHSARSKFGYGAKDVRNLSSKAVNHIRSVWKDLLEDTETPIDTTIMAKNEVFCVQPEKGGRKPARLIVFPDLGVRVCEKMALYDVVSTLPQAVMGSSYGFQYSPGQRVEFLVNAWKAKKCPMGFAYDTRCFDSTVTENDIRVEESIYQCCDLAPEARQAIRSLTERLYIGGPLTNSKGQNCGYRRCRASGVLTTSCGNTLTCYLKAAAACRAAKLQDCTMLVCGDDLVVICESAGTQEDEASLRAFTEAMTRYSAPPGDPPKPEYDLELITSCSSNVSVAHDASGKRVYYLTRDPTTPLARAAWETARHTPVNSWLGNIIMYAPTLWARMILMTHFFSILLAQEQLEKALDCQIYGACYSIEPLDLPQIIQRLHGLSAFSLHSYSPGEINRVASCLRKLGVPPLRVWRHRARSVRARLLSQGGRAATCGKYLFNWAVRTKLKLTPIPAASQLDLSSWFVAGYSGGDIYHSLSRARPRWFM

SMILES	IC50 (HCV NS5B; [1]) [nM]	EC50 (HCV replicon; [2]) [nM]	IC50 (HCV NS5B) [nM]	EC50 (HCV replicon) [nM]
COc1ccc2c(c1)C=C(c1c(C(=O)N3CCN(C)CC(F)(F)C3)nnn1C(C)C)Cn1c-2c(C2CCCCC2)c2ccc(C(=O)NS(=O)(=O)N(C)C)cc21	1 to 500	1 to 500		
COc1ccc2c(c1)C=C(c1nn(C(C)C)c(C)c1C(=O)N1C[C@@H](C)N(C)[C@@H](C)C1)Cn1c-2c(C2CCCCC2)c2ccc(C(=O)NS(=O)(=O)C(C)C)cc21	1 to 500	1 to 500		
CCOC(=O)c1cnn(CC)c1C1=Cc2cc(OC)ccc2-c2c(C3CCCCC3)c3ccc(C(=O)NS(=O)(=O)C(C)C)cc3n2C1	1 to 500	> 500		
COc1ccc2c(c1)C=C(c1ncn(C(C)C)c1C(=O)N1CCOCC1)Cn1c-2c(C2CCCCC2)c2ccc(C(=O)NS(=O)(=O)N(C)C)cc21	1 to 500	1 to 500		
COc1ccc2c(c1)C=C(c1c(C(=O)N3CCN(C)CC3)cnn1C(C)C)Cn1c-2c(C2CCCCC2)c2ccc(C(=O)NS(=O)(=O)C(C)C)cc21	1 to 500	1 to 500		
CCn1nc(C)c(C2=Cc3cc(OC)ccc3-c3c(C4CCCCC4)c4ccc(C(=O)NS(=O)(=O)C(C)C)cc4n3C2)c1C(=O)N1C[C@@H](C)N(C)[C@@H](C)C1	1 to 500	1 to 500		
CCOC(=O)c1c(C)nn(CC)c1C1=Cc2cc(OC)ccc2-c2c(C3CCCCC3)c3ccc(C(N)=O)cc3n2C1	1 to 500	> 500		
CCOC(=O)c1c(C)nn(CC)c1C1=Cc2cc(OC)ccc2-c2c(C3CCCCC3)c3ccc(C(=O)O)cc3n2C1	1 to 500	> 500		
CCn1ncc(C(=O)N2C3CCC2CN(C)C3)c1C1=Cc2cc(OC)ccc2-c2c(C3CCCCC3)c3ccc(C(=O)NS(=O)(=O)C(C)C)cc3n2C1			1 to 500	1 to 500
CCn1nc(C)c(C(=O)N2C3CCC2CN(C)C3)c1C1=Cc2cc(OC)ccc2-c2c(C3CCCCC3)c3ccc(C(=O)NS(=O)(=O)C(C)C)cc3n2C1			1 to 500	1 to 500
COc1ccc2c(c1)C=C(c1ncn(C(C)C)c1C(=O)N1C[C@@H](C)O[C@@H](C)C1)Cn1c-2c(C2CCCCC2)c2ccc(C(=O)NS(=O)(=O)N(C)C)cc21	1 to 500	1 to 500		
COc1ccc2c(c1)C=C(c1c(C(=O)N3C[C@@H](C)O[C@@H](C)C3)c(C(C)C)nn1C)Cn1c-2c(C2CCCCC2)c2ccc(C(=O)NS(=O)(=O)C(C)C)cc21	1 to 500	1 to 500		
CCn1nc(C)c(C(=O)N2C[C@@H](C)O[C@@H](C)C2)c1C1=Cc2cc(OC)ccc2-c2c(C3CCCCC3)c3ccc(C(=O)NS(=O)(=O)C4CC4)cc3n2C1	1 to 500	1 to 500		
COc1ccc2c(c1)C=C(c1c(C(=O)N3CCN(C)CC3)c(C(C)C)nn1C)Cn1c-2c(C2CCCCC2)c2ccc(C(=O)NS(=O)(=O)C(C)C)cc21	1 to 500	1 to 500		
CCn1nc(C)c(C(=O)N2C3CCCC2COC3)c1C1=Cc2cc(OC)ccc2-c2c(C3CCCCC3)c3ccc(C(=O)NS(=O)(=O)C(C)C)cc3n2C1			1 to 500	1 to 500
COc1ccc2c(c1)C=C(c1c(C(=O)N3CC4CCC(C3)O4)cnn1CC(F)(F)F)Cn1c-2c(C2CCCCC2)c2ccc(C(=O)NS(=O)(=O)C(C)C)cc21			1 to 500	1 to 500
CCn1nc(C)c(C2=Cc3cc(OC)ccc3-c3c(C4CCCCC4)c4ccc(C(=O)NS(=O)(=O)C(C)C)cc4n3C2)c1C(=O)N1C[C@@H](C)O[C@H](C)C1	1 to 500	1 to 500		
CCN1CC2CC1CN2C(=O)c1c(C)nn(CC)c1C1=Cc2cc(OC)ccc2-c2c(C3CCCCC3)c3ccc(C(=O)NS(=O)(=O)C(C)C)cc3n2C1 (stereo not shown)	1 to 500			1 to 500
CCOC(=O)c1cnn(CC)c1C1=Cc2cc(OC)ccc2-c2c(C3CCCCC3)c3ccc(C(=O)O)cc3n2C1	1 to 500	> 500		
COc1ccc2c(c1)C=C(c1c(C(=O)N3CCOCC3)ncn1C(C)C)Cn1c-2c(C2CCCCC2)c2ccc(C(=O)NS(=O)(=O)C(C)C)cc21	1 to 500	1 to 500		
COc1ccc2c(c1)C=C(c1c(C(=O)N3C[C@@H](C)O[C@@H](C)C3)nnn1C(C)C)Cn1c-2c(C2CCCCC2)c2ccc(C(=O)NS(=O)(=O)N(C)C)cc21	1 to 500	1 to 500		
CCn1nc(C)c(C(=O)N2CCOCC2)c1C1=Cc2cc(OC)ccc2-c2c(C3CCCCC3)c3ccc(C(=O)NS(=O)(=O)C(C)C)cc3n2C1	1 to 500	1 to 500		
COc1ccc2c(c1)C=C(c1c(C(=O)N3C4COCC3COC4)cnn1CC(F)(F)F)Cn1c-2c(C2CCCCC2)c2ccc(C(=O)NS(=O)(=O)C(C)C)cc21			1 to 500	1 to 500
COc1ccc2c(c1)C=C(c1c(C(=O)N3C4CCC3CN(C)C4)ncn1C(C)C)Cn1c-2c(C2CCCCC2)c2ccc(C(=O)NS(=O)(=O)C(C)C)cc21			1 to 500	1 to 500
COc1ccc2c(c1)C=C(c1c(C(=O)N3C[C@@H](C)N(C)[C@@H](C)C3)ncn1C(C)C)Cn1c-2c(C2CCCCC2)c2ccc(C(=O)NS(=O)(=O)C(C)C)cc21	1 to 500	1 to 500		
COc1ccc2c(c1)C=C(c1c(C(=O)N3C[C@@H](C)N(C)[C@@H](C)C3)nnn1C(C)C)Cn1c-2c(C2CCCCC2)c2ccc(C(=O)NS(=O)(=O)C(C)C)cc21	1 to 500	1 to 500		
